Data reported in patent publication US11046716B2, “Beta-lactamase inhibitors” (priority 2015, dated 2021).
pIC50: −log10 of the molar value.

Tests used:
[1] = test system: E. coli expressing the Class A Extended Spectrum Beta-Lactamase (ESBL) CTX-M-15; assay: Broth microdilution MIC assay with ceftazidime, E. coli CTX-M-15; format: cell-based; settings: Fixed CAZ (ceftazidime) 4 μg/mL; E. coli ESBL4 CTX-M-15
How it was run: (§1)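 In cation-adjusted Mueller Hinton broth, bacteria pre-grown 3-5 hours were exposed to test compound (2-fold, 16–0.125 μg/mL) plus a static 4 μg/ml β-lactam. A panel of control β-lactams was run alongside, and the compound MIC was judged by eye following 16-20 hours at 37° C.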

SHV-5 = biological target: T1, SHV-5 (Klebsiella pneumoniae, UniProt P0A3M1); assay: β-lactamase enzyme inhibition assay, SHV-5 (cefotaxime substrate); format: biochemical
T1 construct: made in house; host or cells: E. coli BL21(DE3)
How it was run: (§2)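 IC50 is the inhibitor level cutting initial substrate hydrolysis rate by 50% relative to no-inhibitor controls, after 15 min enzyme–inhibitor preincubation at 37 °C. KPC-2 read with imipenem at 300 nm, SHV-5 with cefotaxime at 260 nm; enzymes were untagged, E. coli-expressed, chromatographically purified.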

[2] = test system: K. pneumoniae expressing the Class A carbapenemase KPC-2; assay: Broth microdilution MIC assay with meropenem, K. pneumoniae KPC-2; format: cell-based; settings: Fixed Mero (meropenem) 4 μg/mL; K. p. 156319 KPC-3
How it was run: as §1

AmpC = biological target: T2, AmpC (Enterobacter cloacae, UniProt P05364); assay: β-lactamase enzyme inhibition assay, p99 AmpC (nitrocefin substrate); format: biochemical
T2 construct: made in house; host or cells: E. coli BL21(DE3)
How it was run: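 IC50 is the inhibitor level cutting initial substrate hydrolysis rate by 50% relative to no-inhibitor controls, after 15 min enzyme–inhibitor preincubation at 37 °C. enzymes were untagged, E. coli-expressed, chromatographically purified.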

KPC-2 = biological target: T3, KPC-2 (Klebsiella pneumoniae, UniProt Q9F663); assay: β-lactamase enzyme inhibition assay, KPC-2 (imipenem substrate); format: biochemical; settings: Class A; imipenem substrate, 300 nm; read-out: KPC-2
T3 construct: made in house; host or cells: E. coli BL21(DE3)
How it was run: as §2

[3] = test system: K. pneumoniae producing the Class D carbapenemase OXA-48; assay: Broth microdilution MIC assay with meropenem, K. pneumoniae OXA-48; format: cell-based; settings: Fixed Mero (meropenem) 4 μg/mL; K. p. 11978 OXA-48
How it was run: as §1

[4] = test system: K. pneumoniae expressing the class A carbapenemase KPC-2 and the class B carbapenemase VIM-4; assay: Broth microdilution MIC assay with meropenem, K. pneumoniae KPC-2 and VIM-4; format: cell-based; settings: Fixed Mero (meropenem) 4 μg/mL; K. p. A-1797 KPC-2 VIM-4
How it was run: as §1

[5] = test system: E. cloacae expressing the Class C P99; assay: Broth microdilution MIC assay with ceftazidime, E. cloacae P99; format: cell-based; settings: Fixed CAZ (ceftazidime) 4 μg/mL; E. cl. 144200 p99 AmpC
How it was run: as §1

VIM-2 = biological target: T4, VIM-2 (Escherichia coli, UniProt Q5U7L7); assay: β-lactamase enzyme inhibition assay, VIM-2 (nitrocefin substrate); format: biochemical; settings: Class B; nitrocefin substrate, 486 nm; read-out: VIM-2
T4 construct: made in house; host or cells: E. coli BL21(DE3)
How it was run: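 Metallo-β-lactamase VIM-2 activity was tracked spectrophotometrically at 486 nm with 100 μM nitrocefin over 10 min, following 15 min preincubation with compound at 37 °C; inhibition was calculated per concentration.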

[6] = test system: P. aeruginosa expressing the Class B carbapenemase VIM-2; assay: Broth microdilution MIC assay with meropenem, P. aeruginosa VIM-2; format: cell-based; settings: Fixed Mero (meropenem) 4 μg/mL; P. aerug. 2775 VIM-2
How it was run: as §1

OXA-48 = OXA-48 (UniProt Q6XEC0); assay: β-lactamase enzyme inhibition assay, Class D oxacillinase; format: biochemical; settings: read-out: OXA-48

T3 sequence (Q9F663 25-293, looked up): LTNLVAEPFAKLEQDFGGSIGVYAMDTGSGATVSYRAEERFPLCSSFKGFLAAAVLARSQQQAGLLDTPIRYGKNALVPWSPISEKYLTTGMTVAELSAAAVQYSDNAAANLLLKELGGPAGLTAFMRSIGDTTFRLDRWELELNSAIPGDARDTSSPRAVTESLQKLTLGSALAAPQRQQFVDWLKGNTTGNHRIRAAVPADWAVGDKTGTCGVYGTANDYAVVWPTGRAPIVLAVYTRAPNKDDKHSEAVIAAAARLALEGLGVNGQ
T1 sequence (P0A3M1 22-286): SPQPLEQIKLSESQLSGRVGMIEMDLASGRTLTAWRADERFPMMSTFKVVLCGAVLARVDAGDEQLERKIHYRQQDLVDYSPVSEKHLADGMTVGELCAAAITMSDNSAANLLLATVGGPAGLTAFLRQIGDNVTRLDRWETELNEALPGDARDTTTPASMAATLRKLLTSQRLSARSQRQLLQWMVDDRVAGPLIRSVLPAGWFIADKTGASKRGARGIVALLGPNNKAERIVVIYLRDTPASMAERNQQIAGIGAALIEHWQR
T2 sequence (P05364 21-381): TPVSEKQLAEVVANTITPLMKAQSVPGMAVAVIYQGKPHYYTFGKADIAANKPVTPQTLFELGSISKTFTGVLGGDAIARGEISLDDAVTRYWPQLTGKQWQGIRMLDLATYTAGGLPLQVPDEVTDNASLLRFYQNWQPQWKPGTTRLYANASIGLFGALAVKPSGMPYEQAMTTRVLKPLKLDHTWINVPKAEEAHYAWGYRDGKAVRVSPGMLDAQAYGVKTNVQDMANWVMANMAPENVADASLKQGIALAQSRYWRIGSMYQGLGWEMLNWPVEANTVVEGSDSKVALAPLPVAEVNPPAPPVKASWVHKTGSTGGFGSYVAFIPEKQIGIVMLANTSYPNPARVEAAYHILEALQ

Compound | MIC (μg/mL) of Exemplary Compounds in presence of fixed β-lactams: E. coli ESBL4 CTX-M-15 [1] | pIC50 (SHV-5) | MIC (μg/mL) of Exemplary Compounds in presence of fixed β-lactams: K. p. 156319 KPC-3 [2] | pIC50 (AmpC) | pIC50 (KPC-2) | MIC (μg/mL) of Exemplary Compounds in presence of fixed β-lactams: K. p. 11978 OXA-48 [3] | MIC (μg/mL) of Exemplary Compounds in presence of fixed β-lactams: K. p. A-1797 KPC-2 VIM-4 [4] | MIC (μg/mL) of Exemplary Compounds in presence of fixed β-lactams: E. cl. 144200 p99 AmpC [5] | pIC50 (VIM-2) | MIC (μg/mL) of Exemplary Compounds in presence of fixed β-lactams: P. aerug. 2775 VIM-2 [6] | pIC50 (OXA-48)
N=C(N)NCCn1nnc(CC(=O)N[C@H]2Cc3cccc(C(=O)O)c3OB2O)n1 [Example 48, (R)-3-(2-(2-(2-guanidinoethyl)-2H-tetrazol-5-yl)acetamido)-2-hydroxy-3,4-dihydro-2H-benzo[e][1,2]oxaborinine-8-carboxylic acid] | C (C represents an MIC of <1 μg/mL) | > 7.00 | B (B represents an MIC between 1 and 16 μg/mL inclusive) | > 7.00 | > 7.00 | B (B represents an MIC between 1 and 16 μg/mL inclusive) | B (B represents an MIC between 1 and 16 μg/mL inclusive) | C (C represents an MIC of <1 μg/mL) | > 7.00 | C (C represents an MIC of <1 μg/mL) | 5.00 to 6.00
CN(C)CCn1nnnc1CC(=O)N[C@H]1Cc2cccc(C(=O)O)c2OB1O [Example 49, (R)-3-(2-(1-(2-(dimethylamino)ethyl)-1H-tetrazol-5-yl)acetamido)-2-hydroxy-3,4-dihydro-2H-benzo[e][1,2]oxaborinine-8-carboxylic acid] | C (C represents an MIC of <1 μg/mL) | > 7.00 | C (C represents an MIC of <1 μg/mL) | > 7.00 | > 7.00 | B (B represents an MIC between 1 and 16 μg/mL inclusive) | B (B represents an MIC between 1 and 16 μg/mL inclusive) | C (C represents an MIC of <1 μg/mL) | 6.00 to 7.00 | B (B represents an MIC between 1 and 16 μg/mL inclusive) | 6.00 to 7.00
NCCCn1nnnc1CC(=O)N[C@H]1Cc2cccc(C(=O)O)c2OB1O [Example 50, (R)-3-(2-(1-(3-aminopropyl)-1H-tetrazol-5-yl)acetamido)-2-hydroxy-3,4-dihydro-2H-benzo[e][1,2]oxaborinine-8-carboxylic acid] | C (C represents an MIC of <1 μg/mL) | > 7.00 | C (C represents an MIC of <1 μg/mL) | > 7.00 | > 7.00 | B (B represents an MIC between 1 and 16 μg/mL inclusive) | C (C represents an MIC of <1 μg/mL) | C (C represents an MIC of <1 μg/mL) | > 7.00 | C (C represents an MIC of <1 μg/mL) | 5.00 to 6.00
NCCCn1nnc(CC(=O)N[C@H]2Cc3cccc(C(=O)O)c3OB2O)n1 [Example 51] | C (C represents an MIC of <1 μg/mL) | > 7.00 | C (C represents an MIC of <1 μg/mL) | > 7.00 | > 7.00 | B (B represents an MIC between 1 and 16 μg/mL inclusive) | B (B represents an MIC between 1 and 16 μg/mL inclusive) | C (C represents an MIC of <1 μg/mL) | > 7.00 | C (C represents an MIC of <1 μg/mL) | 5.00 to 6.00
CC(C)NCCn1nnnc1CC(=O)N[C@H]1Cc2cccc(C(=O)O)c2OB1O [Example 52, (R)-2-hydroxy-3-(2-(1-(2-(isopropylamino)ethyl)-1H-tetrazol-5-yl)acetamido)-3,4-dihydro-2H-benzo[e][1,2]oxaborinine-8-carboxylic acid] | C (C represents an MIC of <1 μg/mL) | > 7.00 | C (C represents an MIC of <1 μg/mL) | > 7.00 | > 7.00 | B (B represents an MIC between 1 and 16 μg/mL inclusive) | B (B represents an MIC between 1 and 16 μg/mL inclusive) | C (C represents an MIC of <1 μg/mL) | > 7.00 | C (C represents an MIC of <1 μg/mL) | 5.00 to 6.00
N=C(N)NCCCn1nnnc1CC(=O)N[C@H]1Cc2cccc(C(=O)O)c2OB1O [Example 53, (R)-3-(2-(1-(3-guanidinopropyl)-1H-tetrazol-5-yl)acetamido)-2-hydroxy-3,4-dihydro-2H-benzo[e][1,2]oxaborinine-8-carboxylic acid] | C (C represents an MIC of <1 μg/mL) | > 7.00 | C (C represents an MIC of <1 μg/mL) | > 7.00 | > 7.00 | B (B represents an MIC between 1 and 16 μg/mL inclusive) | C (C represents an MIC of <1 μg/mL) | C (C represents an MIC of <1 μg/mL) | > 7.00 | C (C represents an MIC of <1 μg/mL) | 5.00 to 6.00
CCn1nnnc1CC(=O)N[C@H]1Cc2cccc(C(=O)O)c2OB1O [Example 54, (R)-3-(2-(1-ethyl-1H-tetrazol-5-yl)acetamido)-2-hydroxy-3,4-dihydro-2H-benzo[e][1,2]oxaborinine-8-carboxylic acid] | C (C represents an MIC of <1 μg/mL) | > 7.00 | B (B represents an MIC between 1 and 16 μg/mL inclusive) | > 7.00 | > 7.00 | B (B represents an MIC between 1 and 16 μg/mL inclusive) | B (B represents an MIC between 1 and 16 μg/mL inclusive) | C (C represents an MIC of <1 μg/mL) | 6.00 to 7.00 | B (B represents an MIC between 1 and 16 μg/mL inclusive) | 5.00 to 6.00
NCc1cc(-c2cn(CC(=O)N[C@H]3Cc4cccc(C(=O)O)c4OB3O)nn2)cs1 [Example 55, (R)-3-(2-(4-(5-(aminomethyl)thiophen-3-yl)-1H-1,2,3-triazol-1-yl)acetamido)-2-hydroxy-3,4-dihydro-2H-benzo[e][1,2]oxaborinine-8-carboxylic acid] | C (C represents an MIC of <1 μg/mL) | > 7.00 | C (C represents an MIC of <1 μg/mL) | > 7.00 | > 7.00 | B (B represents an MIC between 1 and 16 μg/mL inclusive) | B (B represents an MIC between 1 and 16 μg/mL inclusive) | C (C represents an MIC of <1 μg/mL) | 6.00 to 7.00 | B (B represents an MIC between 1 and 16 μg/mL inclusive) | 6.00 to 7.00
